From patent EP2790511B1 (Merck Sharp & Dohme Corp., priority 2011, dated 2013) come the findings set out here.

One assay has as its target T1, hROMK (hKir1.1) (Homo sapiens, UniProt P48048).
T1 construct: expressed in transfected cells
T1 sequence (P48048 1-391): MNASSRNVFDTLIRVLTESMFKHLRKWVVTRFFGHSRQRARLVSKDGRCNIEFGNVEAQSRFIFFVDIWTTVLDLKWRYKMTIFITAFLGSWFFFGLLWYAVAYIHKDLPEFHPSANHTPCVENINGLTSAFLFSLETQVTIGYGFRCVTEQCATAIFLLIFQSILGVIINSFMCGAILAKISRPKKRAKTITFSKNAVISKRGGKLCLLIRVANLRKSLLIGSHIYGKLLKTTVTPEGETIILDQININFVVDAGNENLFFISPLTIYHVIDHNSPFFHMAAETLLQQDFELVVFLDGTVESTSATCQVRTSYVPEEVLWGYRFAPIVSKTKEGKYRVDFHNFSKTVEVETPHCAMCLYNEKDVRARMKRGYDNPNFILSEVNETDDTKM
The assay can be described thus: Thallium Flux Assay. The format is cell-based. Particulars: HEK293 cells stably expressing hROMK (hKir1.1), FLIPR-Tetra; read-out: Thallium Flux IC50. In a few lines:
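HEK293 cells stably expressing hROMK, loaded with FluxOR dye 90 min at ambient temperature, then compound 30 min with 0.3 mM ouabain in probenecid buffer pH 7.4.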
As for `Cc1c([C@@H]2CN3CCN(C(=O)Cc4cnc(-n5cnnn5)nc4)C[C@H]3CO2)ccc2c1COC2=O` [Example 16], the IC50 (commonly the concentration that inhibits the measured activity by half) stood at 480 nM. Same read-out and setting: as for `Cc1c([C@@H]2CN3CCN(C(=O)Cc4cccc(-n5cnnn5)n4)C[C@@H]3CO2)ccc(F)c1C#N` [Example 161, 6-fluoro-2-methyl-3-[(3R,9aR)-8-{[6-(1H-tetrazol-1-yl)pyridin-2-yl]acetyl}octahydropyrazino[2,1-c][1,4]oxazin-3-yl]benzonitrile], the figure is 350 nM; as for `Cc1c([C@H]2CN3CCN(C(=O)Cc4ccc(-n5cnnn5)nc4)C[C@H]3CCO2)ccc(F)c1C#N` (single isomer, unassigned) [Example 169], 180 nM; as for `Cc1nc(CC(=O)N2CCN3C[C@@H](c4ccc(F)c(C#N)c4C)OC[C@@H]3C2)ccc1-n1cnnn1` [Example 128, 6-fluoro-2-methyl-3-[(3R,9aS)-8-{[6-methyl-5-(1H-tetrazol-1-vl)pvridin-2-yl]acetyl}octahydropyrazino[2,1-c][1,4]oxazin-3-yl]benzonitrile], 180 nM. On to `Cc1c([C@@H]2CN3CCN(C(=O)Cc4ccc(-n5cnnn5)nc4)C[C@H]3CO2)ccc2nonc12` [Example 177, (3R,9aS)-3-(4-methyl-2,1,3-benzoxadiazol-5-yl)-8-{[6-(1H-tetrazol-1-yl)pyridin-3-yl]acetyl}octahydropyrazino[2,1-c][1,4]oxazine], for which the IC50 turned out to be 250 nM. On to `Cc1c([C@H]2CN3CCN(C(=O)Cc4ccc(-n5cnnn5)nn4)C[C@H]3CO2)ccc(F)c1C#N` [Example 155, 6-fluoro-2-methyl-3-[(3S,9aS)-8-{[6-(1H-tetrazol-1-yl)pyridazin-3-yl]acetyl}octahydropyrazino [2,1-c][1,4]oxazin-3-yl]benzonitrile], for which the IC50 was found to be 300 nM.

For the molecule `COc1c([C@H]2CN3CCN(C(=O)Cc4cnc(-n5cnnn5)nc4)C[C@H]3CO2)ccc(F)c1C#N` [Example 139, 6-fluoro-2-methoxy-3-[(3S,9aS)-8-{[2-(1H-tetrazol-1-vl)pvrimidin-5-yl]acetyl}octahydropyrazino[2,1-c][1,4]oxazin-3-yl]benzonitrile], the IC50 was 160 nM. Regarding `Cc1cc(CC(=O)N2CCN3C[C@H](c4ccc(F)c(C#N)c4C)OC[C@H]3C2)cnc1-n1cnnn1` [Example 134, 6-fluoro-2-methyl-3-[(3S,9aR)-8-{[5-methyl-6-(1H-tetrazol-1-yl)pyridin-3-yl]acetyl}octahydropyrazino[2,1-c][1,4]oxazin-3-yl]benzonitrile], the IC50 was 280 nM. Still for that read-out and setting: the result for `COc1cc([C@H]2CN3CCN(C(=O)Cc4ccc(-n5cnnn5)nc4)C[C@@H]3CO2)cc(F)c1C#N` [Example 112, 2-fluoro-6-methoxy-4-[(3S,9aR)-8-{[6-(1H-tetrazol-1-vl)pvridin-3-yl]acetyl}octahydropyrazino[2,1-c][1,4]oxazin-3-yl]benzonitrile] reads 220 nM; that for `COc1cc([C@H]2CN3CCN(C(=O)Cc4ccc(-n5cnnn5)nc4)C[C@H]3CO2)cc(F)c1C#N` [Example 113, 2-fluoro-6-methoxy-4-[(3S,9aS)-8-{[6-(1H-tetrazol-1-vl)pvridin-3-yl]acetyl}octahydropyrazino[2,1-c][1,4]oxazin-3-yl]benzonitrile], 120 nM; that for `Cc1c(C#N)cncc1[C@@H]1CN2CCN(C(=O)Cc3ccc(-n4cnnn4)nc3)C[C@H]2CO1` [Example 74, 4-methyl-5-[(3R,9aS)-8-{[6-(1H-tetrazol-1-yl)pyridin-3-yl]acetyl}octahydropyrazino[2,1-c][1,4]oxazin-3-yl]pyridine-3-carbonitrile], 390 nM. Regarding `Cc1c([C@H]2CN3CCN(C(=O)Cc4ccc(-n5cnnn5)nc4)C[C@H]3CO2)ccc2nonc12` [Example 176, (3S,9aS)-3-(4-methyl-2,1,3-benzoxadiazol-5-yl)-8-{[6-(1H-tetrazol-1-yl)pyridin-3-yl]acetyl}octahydropyrazino[2,1-c][1,4]oxazine], the IC50 came to 200 nM. Consider `COc1c([C@@H]2CN3CCN(C(=O)Cc4ccc(-n5cnnn5)cn4)C[C@H]3CO2)ccc(F)c1C#N` [Example 62, 6-fluoro-2-methoxy-3-[(3R,9aS)-8-{[5-(1H-tetrazol-1-vl)pvridin-2-yl]acetyl}octahydropyrazino[2,1-c][1,4]oxazin-3-yl]benzonitrile], for which the IC50 was 460 nM.

Take `COc1c([C@H]2CN3CCN(C(=O)Cc4ccc(-n5cnnn5)cn4)C[C@H]3CO2)ccc(F)c1C#N` [Example 63, 6-fluoro-2-methoxy-3-[(3S,9aS)-8-{[5-(1H-tetrazol-1-vl)pvridin-2-yl]acetyl}octahydropyrazino[2,1-c][1,4]oxazin-3-yl]benzonitrile]: the IC50 stood at 180 nM. On the same count and under the same terms, as for `Cc1cc(CC(=O)N2CCN3C[C@@H](c4ccc(F)c(C#N)c4C)OC[C@H]3C2)ncc1-n1cnnn1` [Example 129, 6-fluoro-2-methyl-3-[(3R,9aR)-8-{[4-methyl-5-(1H-tetrazol-1-yl)pyridin-2-yl]acetyl}octahydropyrazino[2,1-c][1,4]oxazin-3-yl]benzonitrile], the figure is 250 nM. For `C[C@H]1Cc2cc([C@]3(C)CN4CCN(C(=O)Cc5ccc(-n6cnnn6)nc5)C[C@H]4CO3)ccc2C(=O)O1` [Example 106, (3S)-3-methyl-6-[(3R,9aS)-3-methyl-8-{[6-(1H-tetrazol-1-yl)pyridin-3-yl]acetyl}octahydropyrazino[2,1-c][1,4]oxazin-3-yl]-3,4-dihydro-1H-isochromen-1-one], the IC50 was 420 nM. The same measure, in the same setting: as for `Cc1c([C@@H]2CN3CCN(C(=O)Nc4ccc(-n5cnnn5)cn4)C[C@@H]3CO2)ccc(F)c1C#N` [Example 200, (3R,9aR)-3-(3-cyano-4-fluoro-2-methylphenyl)-N-[5-(1H-tetrazol-1-yl)pyridin-2-yl]hexahydropyrazino[2,1-c][1,4]oxazine-8(1H)-carboxamide], the figure is 250 nM.

The same assay, now with this note: Thallium Flux IC50.
`COc1ccc([C@@H]2CN3CCN(C(=O)Cc4cnc(-n5cnnn5)nc4)C[C@H]3CO2)c(C)c1C#N` [Example 135, 6-methoxy-2-methyl-3-[(3R,9aS)-8-{[2-(1H-tetrazol-1-vl)pvrimidin-5-yl]acetyl}octahydropyrazino[2,1-c][1,4]oxazin-3-yl]benzonitrile] had an IC50 of 330 nM.

In turn, `O=C1OCCc2cc([C@H]3CN4CCN(C(=O)Cc5ccc(-n6cnnn6)nc5)C[C@@H]4CO3)ccc21` [Example 55, 6-[(3S,9aR)-8-{[6-(1H-tetrazol-1-yl)pyridin-3-yl]acetyl}octahydropyrazino[2,1-c][1,4]oxazin-3-yl]-3,4-dihydro-1H-isochromen-1-one] came in with an IC50 of 120 nM. Molecule `Cc1c([C@@H]2CN3CCN(C(=O)Cc4ccc(-n5nnnc5C)cn4)C[C@H]3CO2)ccc(F)c1C#N` [Example 162, 6-fluoro-2-methyl-3-[(3R,9aS)-8-{[5-(5-methyl-1H-tetrazol-1-vl)pvridin-2-yl]acetyl}octahydropyrazino[2,1-c][1,4]oxazin-3-yl]benzonitrile] had an IC50 of 170 nM. On to `Cc1c([C@@H]2CN3CCN(C(=O)Cc4ccc(-n5cnnn5)nc4)C[C@@H]3CCO2)ccc(F)c1C#N` (single isomer, unassigned) [Example 170], for which half-maximal inhibition (IC50) required 240 nM. Same read-out and setting: the result for `O=C1OCc2c1ccc([C@H]1CN3CCN(C(=O)Cc4ccc(-n5cnnn5)nc4)C[C@H]3CO1)c2Cl` [Example 47, 4-chloro-5-[(3S,9aS)-8-{[6-(1H-tetrazol-1-yl)pyridin-3-yl]acetyl}octahydropyrazino[2,1-c][1,4]oxazin-3-yl]-2-benzofuran-1(3H)-one] reads 90 nM; that for `Cc1nc(-n2cnnn2)nc(C)c1CC(=O)N1CCN2C[C@H](c3ccc(F)c(C#N)c3C)OC[C@H]2C1` [Example 151, 3-[(3S,9aR)-8-{[4,6-dimethyl-2-(1H-tetrazol-1-yl)pyrimidin-5-yl]acetyl}octahydropyrazino[2,1-c][1,4]oxazin-3-yl]-6-fluoro-2-methylbenzonitrile], 300 nM; that for `Cc1c([C@@H]2CN3CCN(C(=O)Cc4ccc(-n5cnnn5)nc4)C[C@H]3CO2)ccc2c1COC2=O` [Example 22, 4-methyl-5-[(3R,9a,S)-8-{[6-(1H-tetrazol-1-yl)pyridin-3-yl]acetyl}octahydropyrazino[2,1-c][1,4]oxazin-3-y]-2-benzofuran-1(3H)-one], 160 nM.

`N#Cc1c(F)ccc([C@@H]2CN3CCN(C(=O)Cc4cnc(-n5cnnn5)nc4)C[C@H]3CO2)c1Cl` [Example 136, 2-chloro-6-fluoro-3-[(3R,9aS)-8-{[2-(1H-tetrazol-1-yl)pyrimidin-5-yl]acetyl}octahydropyrazino[2,1-c][1,4]oxazin-3-yl]benzonitrile]: half-maximal inhibition (IC50) was put at 40 nM. Same read-out and setting: the result for `Cc1c([C@@H]2CN3CCN(C(=O)Cc4ccc(-n5cnnn5)nc4)C[C@@H]3CO2)ccc2c1COC2=O` [Example 23] reads 70 nM.

On to `N#Cc1c(F)ccc([C@H]2CN3CCN(C(=O)Cc4ccc(-n5cnnn5)cn4)C[C@H]3CO2)c1Cl` [Example 52, 2-chloro-6-fluoro-3-[(3S,9aS)-8-{[5-(1H-tetrazol-1-yl)pyridin-2-yl]acetyl}octahydropyrazino[2,1-c][1,4]oxazin-3-yl]benzonitrile], for which half-maximal inhibition (IC50) was put at 110 nM.
